{"source": "paper PMC9733060", "about": "“Novel alendronate-CGS21680 conjugate reduces bone resorption and induces new bone formation in post-menopausal osteoporosis and inflammatory osteolysis mouse models” (Arthritis Research & Therapy, 2022)", "key": {"[1]": {"conditions": "cited from earlier work"}, "[2]": {"tested_on": "human primary osteoclasts", "assay": "human primary osteoclast differentiation (RANKL, TRAP staining)", "assay_type": "cell-based", "conditions": "0.001-10 μM, 7 days, 30 ng/mL RANKL", "description": "Human bone marrow was obtained from 4 OA patients who underwent hip replacement surgery and all protocols were approved by the NYU School of Medicine’s IRB. Precursor cells were flushed out from femoral head with DMEM media with 10% fetal bovine serum (FBS), and 100 U/ml of penicillin and streptomycin (Lonza, Belgium) in sterile conditions and incubated for 48h non-adherent cells were collected and differentiated to osteoclasts and adherents cell were differentiated to osteoblasts as previously described.\nOsteoclast differentiation was assessed by TRAP staining by incubating PFA fixed samples with TRAP buffer (0.1M acetate buffer, 0.3M sodium tartrate, 10mg/ml Naphthol AS-MX phosphate, 0.1% Triton X-100, 0.3mg/ml Fast Red Violet LB (Sigma-Aldrich, St. Louis, MO, USA)) for 10 min. Images were taken in a Leica (Morrisville, NC, USA) inverted microscope."}, "[3]": {"tested_on": "ovariectomy-induced osteoporotic mice", "assay_type": "in vivo", "conditions": "μCT, mean ± SEM, 10 mg/kg weekly IP, 9 weeks"}, "[4]": {"tested_on": "UHMWPE-induced osteolytic mice (WT)", "assay": "UHMWPE wear particle-induced osteolysis (OL) in WT mice calvaria", "assay_type": "in vivo, mouse", "conditions": "doses <10mg/kg/week, data not shown"}, "[5]": {"tested_on": "human primary osteoclasts", "design": "method as in PMID 23647065, PMID 25573752", "conditions": "previously demonstrated; cited from earlier work"}}, "note": "Where two headings read alike, the source gives them in different places. Marks after values point to notes of the source that are not given here.", "data": [{"molecule": "NCCCC(O)(P(=O)(O)O)P(=O)(O)O", "note": "[Alendronate, alendronic acid]", "values": [{"measurement": "time for kidneys to excrete the amount not taken up by bone tissues", "setting": "[1]", "result": "≤ 24", "unit": "h"}, {"measurement": "elimination from bone tissue", "setting": "[1]; humans", "result": "up to 12 years"}, {"measurement": "inhibition of osteoclast differentiation (anti-osteoclastogenic properties)", "setting": "[2]", "result": "more potent than AlenP"}, {"measurement": "BS/BV", "setting": "[3]; L5 vertebra trabecular bone", "result": "71.26 ± 2.80* 1/mm"}, {"measurement": "BV/TV", "setting": "[3]; L5 vertebra trabecular bone", "result": "12.34 ± 0.74", "unit": "%"}, {"measurement": "Tb.N", "setting": "[3]; L5 vertebra trabecular bone", "result": "2.60 ± 0.21 * 1/mm"}, {"measurement": "Tb.Pf", "setting": "[3]; L5 vertebra trabecular bone", "result": "13.73 ± 1.23 # 1/mm"}, {"measurement": "Tb.Sp", "setting": "[3]; L5 vertebra trabecular bone", "result": "0.298 ± 0.012", "unit": "μm"}, {"measurement": "Tb.Th", "setting": "[3]; L5 vertebra trabecular bone", "result": "0.047 ± 0.002", "unit": "μm"}, {"measurement": "BV", "setting": "[3]; femur cortical bone", "result": "0.442 ± 0.014 * mm^3"}, {"measurement": "BV/TV", "setting": "[3]; femur cortical bone", "result": "44.50 ± 1.03"}, {"measurement": "TV", "setting": "[3]; femur cortical bone", "result": "0.994 ± 0.042", "unit": "mm^3"}, {"measurement": "BS/BV", "setting": "[3]; femur trabecular bone", "result": "89.18 ± 4.61 1/mm"}, {"measurement": "BV/TV", "setting": "[3]; femur trabecular bone", "result": "0.771 ± 0.210", "unit": "%"}, {"measurement": "Tb.N", "setting": "[3]; femur trabecular bone", "result": "0.164 ± 0.043 # 1/mm"}, {"measurement": "Tb.Pf", "setting": "[3]; femur trabecular bone", "result": "37.43 ± 2.48 1/mm"}, {"measurement": "Tb.Sp", "setting": "[3]; femur trabecular bone", "result": "0.702 ± 0.100 # μm"}, {"measurement": "Tb.Th", "setting": "[3]; femur trabecular bone", "result": "0.0468 ± 0.0014", "unit": "μm"}]}, {"molecule": "CCNC(=O)[C@H]1O[C@@H](n2cnc3c(N)nc(NCCc4ccc(CCC(=O)O)cc4)nc32)[C@H](O)[C@@H]1O", "note": "[CGS21680, 2-[p-(2-carboxyethyl)-phenethylamino]-5'-N-ethylcarboxamido adenosine]", "values": [{"measurement": "effect on bone density in the affected areas", "setting": "[4]", "result": "none of the doses tested <10mg/kg/week had any effect on bone density"}]}, {"molecule": "Nc1nc(NCCc2ccc(O)cc2)nc2nc(-c3ccco3)nn12", "note": "[ZM21385]", "values": [{"measurement": "effect on osteoclast differentiation", "setting": "[5]", "result": "increases osteoclast differentiation"}]}]}
